Data published in ChEMBL document CHEMBL4118048, “Characterization of the Polymyxin D Synthetase Biosynthetic Cluster and Product Profile of Paenibacillus polymyxa ATCC 10401” (2017).
Converted amounts (≈) assume the structure as drawn. The source made the active and inactive calls. No cut-off for these calls is given here. Where a SMILES comes first, the peptide text is derived from it. Bridges are numbered along the chain shown (N, C = ends). [ ]: non-standard residue; d: D form. The star is where a group is joined. Heptanoyl(6-Me) = CC(C)CCCCC(=O)*; X1 = CC[C@H](C)CCCCC(=O)*; Dab = NCC[C@H](N)C(=O)O

How the values were obtained:
Pseudomonas aeruginosa [1] = experiment: Antibacterial activity against Pseudomonas aeruginosa ATCC 27853 after 18 hrs by broth microdilution method; type: functional; conditions: ATCC 27853, 18 h
Acinetobacter baumannii [2] = experiment: Antibacterial activity against Acinetobacter baumannii ATCC 19606 after 18 hrs by broth microdilution method; type: functional; conditions: ATCC 19606 = CIP 70.34 = JCM 6841, 18 h
Klebsiella pneumoniae [3] = experiment: Antibacterial activity against Klebsiella pneumoniae isolate FADDI-KP032 after 18 hrs by broth microdilution method; type: functional; conditions: isolate FADDI-KP032, 18 h
Klebsiella pneumoniae [4] = experiment: Antibacterial activity against Klebsiella pneumoniae isolate FADDI-KP032 infected in mouse assessed as reduction in bacterial count in blood at 4 mg/kg, ip measured after 4 hrs; type: functional, organism-based
Acinetobacter baumannii [5] = experiment: Antibacterial activity against Acinetobacter baumannii ATCC 19606 infected in mouse assessed as reduction in bacterial count in blood at 4 mg/kg, ip measured after 4 hrs; type: functional, organism-based; conditions: ATCC 19606 = CIP 70.34 = JCM 6841
Pseudomonas aeruginosa [6] = experiment: Antibacterial activity against Pseudomonas aeruginosa ATCC 27853 infected in mouse assessed as reduction in bacterial count in blood at 4 mg/kg, ip measured after 4 hrs; type: functional
Pseudomonas aeruginosa [7] = experiment: Antibacterial activity against Pseudomonas aeruginosa isolate FADDI-PA022 after 18 hrs by broth microdilution method; type: functional; conditions: isolate FADDI-PA022, 18 h
Pseudomonas aeruginosa [8] = experiment: Antibacterial activity against Pseudomonas aeruginosa isolate FADDI-PA025 after 18 hrs by broth microdilution method; type: functional; conditions: isolate FADDI-PA025, 18 h
Pseudomonas aeruginosa [9] = experiment: Antibacterial activity against Pseudomonas aeruginosa isolate FADDI-PA001 after 18 hrs by broth microdilution method; type: functional; conditions: isolate FADDI-PA001, 18 h
Pseudomonas aeruginosa [10] = experiment: Antibacterial activity against Pseudomonas aeruginosa isolate FADDI-PA038 after 18 hrs by broth microdilution method; type: functional; conditions: isolate FADDI-PA038, 18 h
Acinetobacter baumannii [11] = experiment: Antibacterial activity against Acinetobacter baumannii isolate FADDI-AB034 after 18 hrs by broth microdilution method; type: functional; conditions: isolate FADDI-AB034, 18 h
Acinetobacter baumannii [12] = experiment: Antibacterial activity against Acinetobacter baumannii ATCC 17978 after 18 hrs by broth microdilution method; type: functional; conditions: ATCC 17978, 18 h
Acinetobacter baumannii [13] = experiment: Antibacterial activity against Acinetobacter baumannii isolate FADDI-AB030 after 18 hrs by broth microdilution method; type: functional; conditions: isolate FADDI-AB030, 18 h
Klebsiella pneumoniae [14] = experiment: Antibacterial activity against Klebsiella pneumoniae ATCC 13883 after 18 hrs by broth microdilution method; type: functional; conditions: ATCC 13883, 18 h
Klebsiella pneumoniae [15] = experiment: Antibacterial activity against Klebsiella pneumoniae isolate FADDI-KP022 after 18 hrs by broth microdilution method; type: functional; conditions: isolate FADDI-KP022, 18 h
Klebsiella pneumoniae [16] = experiment: Antibacterial activity against Klebsiella pneumoniae BM1 after 18 hrs by broth microdilution method; type: functional; conditions: BM1, 18 h
Klebsiella pneumoniae [17] = experiment: Antibacterial activity against Klebsiella pneumoniae ATCC 700721 after 18 hrs by broth microdilution method; type: functional; conditions: ATCC 700721, 18 h
Klebsiella pneumoniae [18] = experiment: Antibacterial activity against Klebsiella pneumoniae isolate FADDI-KP065 after 18 hrs by broth microdilution method; type: functional; conditions: isolate FADDI-KP065, 18 h
Escherichia coli [19] = experiment: Antibacterial activity against Escherichia coli isolate FADDI-EC006 after 18 hrs by broth microdilution method; type: functional; conditions: isolate FADDI-EC006, 18 h
Escherichia coli [20] = experiment: Antibacterial activity against Escherichia coli isolate FADDI-EC001 after 18 hrs by broth microdilution method; type: functional; conditions: isolate FADDI-EC001, 18 h
Escherichia coli [21] = experiment: Antibacterial activity against Escherichia coli isolate FADDI-EC003 after 18 hrs by broth microdilution method; type: functional; conditions: isolate FADDI-EC003, 18 h

MIC (Pseudomonas aeruginosa [1]) | MIC (Acinetobacter baumannii [2]) | MIC (Klebsiella pneumoniae [3]) | MIC (Pseudomonas aeruginosa [7]) | MIC (Pseudomonas aeruginosa [8]) | MIC (Pseudomonas aeruginosa [9]) | MIC (Pseudomonas aeruginosa [10]) | MIC (Acinetobacter baumannii [11]) | MIC (Acinetobacter baumannii [12]) | MIC (Acinetobacter baumannii [13]) | MIC (Klebsiella pneumoniae [14]) | MIC (Klebsiella pneumoniae [15]) | MIC (Klebsiella pneumoniae [16]) | MIC (Klebsiella pneumoniae [17]) | MIC (Klebsiella pneumoniae [18]) | MIC (Escherichia coli [19]) | MIC (Escherichia coli [20]) | Compound | Activity (Klebsiella pneumoniae [4]) | Activity (Acinetobacter baumannii [5]) | log(activity) (Pseudomonas aeruginosa [6]) | other results
8 to 32 µg/mL (≈ 6.99 to 28 µM) | 8 to 32 µg/mL (≈ 6.99 to 28 µM) | 8 to 32 µg/mL (≈ 6.99 to 28 µM) | 8 to 32 µg/mL (≈ 6.99 to 28 µM) | 8 to 32 µg/mL (≈ 6.99 to 28 µM) | 8 to 32 µg/mL (≈ 6.99 to 28 µM) | 8 to 32 µg/mL (≈ 6.99 to 28 µM) | 8 to 32 µg/mL (≈ 6.99 to 28 µM) | 8 to 32 µg/mL (≈ 6.99 to 28 µM) | 8 to 32 µg/mL (≈ 6.99 to 28 µM) | 8 to 32 µg/mL (≈ 6.99 to 28 µM) | 8 to 32 µg/mL (≈ 6.99 to 28 µM) | 8 to 32 µg/mL (≈ 6.99 to 28 µM) | 8 to 32 µg/mL (≈ 6.99 to 28 µM) | 8 to 32 µg/mL (≈ 6.99 to 28 µM) | 8 to 32 µg/mL (≈ 6.99 to 28 µM) | 8 to 32 µg/mL (≈ 6.99 to 28 µM) | CC[C@H](C)CCCCC(=O)N[C@@H](CCN)C(=O)N[C@H](C(=O)N[C@H](CO)C(=O)N[C@H]1CCNC(=O)[C@H]([C@@H](C)O)NC(=O)[C@H](CCN)NC(=O)[C@H](CCN)NC(=O)[C@H]([C@@H](C)O)NC(=O)[C@@H](CC(C)C)NC(=O)[C@H](CCN)NC1=O)[C@@H](C)O (X1-[Dab]T[dS][Dab][Dab][dL]T[Dab][Dab]T; lactam 4-C) | Active | Active | – | MIC (Escherichia coli [21]): 8 to 32 µg/mL (≈ 6.99 to 28 µM); Activity (Pseudomonas aeruginosa [6]): inactive
8 to 32 µg/mL (≈ 7.08 to 28.3 µM) | 8 to 32 µg/mL (≈ 7.08 to 28.3 µM) | 8 to 32 µg/mL (≈ 7.08 to 28.3 µM) | 8 to 32 µg/mL (≈ 7.08 to 28.3 µM) | 8 to 32 µg/mL (≈ 7.08 to 28.3 µM) | 8 to 32 µg/mL (≈ 7.08 to 28.3 µM) | 8 to 32 µg/mL (≈ 7.08 to 28.3 µM) | 8 to 32 µg/mL (≈ 7.08 to 28.3 µM) | 8 to 32 µg/mL (≈ 7.08 to 28.3 µM) | 8 to 32 µg/mL (≈ 7.08 to 28.3 µM) | 8 to 32 µg/mL (≈ 7.08 to 28.3 µM) | 8 to 32 µg/mL (≈ 7.08 to 28.3 µM) | 8 to 32 µg/mL (≈ 7.08 to 28.3 µM) | 8 to 32 µg/mL (≈ 7.08 to 28.3 µM) | 8 to 32 µg/mL (≈ 7.08 to 28.3 µM) | 8 to 32 µg/mL (≈ 7.08 to 28.3 µM) | 8 to 32 µg/mL (≈ 7.08 to 28.3 µM) | CC(C)CCCCC(=O)N[C@@H](CCN)C(=O)N[C@H](C(=O)N[C@H](CO)C(=O)N[C@H]1CCNC(=O)[C@H]([C@@H](C)O)NC(=O)[C@H](CCN)NC(=O)[C@H](CCN)NC(=O)[C@H]([C@@H](C)O)NC(=O)[C@@H](CC(C)C)NC(=O)[C@H](CCN)NC1=O)[C@@H](C)O ({Heptanoyl(6-Me)}-[Dab]T[dS][Dab][Dab][dL]T[Dab][Dab]T; lactam 4-C) | Active | Active | – | MIC (Escherichia coli [21]): 8 to 32 µg/mL (≈ 7.08 to 28.3 µM); Activity (Pseudomonas aeruginosa [6]): inactive
0.5 µg/mL (≈ 0.42 µM) | 0.5 µg/mL (≈ 0.42 µM) | 0.5 µg/mL (≈ 0.42 µM) | – | – | – | – | – | – | – | – | – | – | – | – | – | – | CC(C)CCCCC(=O)N[C@@H](CCN)C(=O)N[C@H](C(=O)N[C@@H](CCN)C(=O)N[C@H]1CCNC(=O)[C@H]([C@@H](C)O)NC(=O)[C@H](CCN)NC(=O)[C@H](CCN)NC(=O)[C@H](CC(C)C)NC(=O)[C@@H](Cc2ccccc2)NC(=O)[C@H](CCN)NC1=O)[C@@H](C)O [POLYMYXIN B2] ({Heptanoyl(6-Me)}-[Dab]T[Dab][Dab][Dab][dF]L[Dab][Dab]T; lactam 4-C) | Active | Active | -2.55 | –

Compound | MIC (Pseudomonas aeruginosa [1]) | MIC (Acinetobacter baumannii [2]) | MIC (Klebsiella pneumoniae [3]) | MIC (Pseudomonas aeruginosa [7]) | MIC (Pseudomonas aeruginosa [8]) | MIC (Pseudomonas aeruginosa [9]) | MIC (Pseudomonas aeruginosa [10]) | MIC (Acinetobacter baumannii [11]) | MIC (Acinetobacter baumannii [12]) | MIC (Acinetobacter baumannii [13]) | MIC (Klebsiella pneumoniae [14]) | MIC (Klebsiella pneumoniae [15]) | MIC (Klebsiella pneumoniae [16]) | MIC (Klebsiella pneumoniae [17]) | MIC (Klebsiella pneumoniae [18]) | MIC (Escherichia coli [19]) | MIC (Escherichia coli [20]) | Activity (Klebsiella pneumoniae [4]) | Activity (Acinetobacter baumannii [5]) | log(activity) (Pseudomonas aeruginosa [6]) | other results
CC[C@H](C)CCCCC(=O)N[C@@H](CCN)C(=O)N[C@H](C(=O)N[C@@H](CCN)C(=O)N[C@H]1CCNC(=O)[C@H]([C@@H](C)O)NC(=O)[C@H](CCN)NC(=O)[C@H](CCN)NC(=O)[C@H](CC(C)C)NC(=O)[C@@H](Cc2ccccc2)NC(=O)[C@H](CCN)NC1=O)[C@@H](C)O (X1-[Dab]T[Dab][Dab][Dab][dF]L[Dab][Dab]T; lactam 4-C) | 0.5 µg/mL (≈ 0.415 µM) | 0.5 µg/mL (≈ 0.415 µM) | 0.5 µg/mL (≈ 0.415 µM) | – | – | – | – | – | – | – | – | – | – | – | – | – | – | Active | Active | -2.55 | –
